Measurements taken from patent publication US12723063B2, “GIPR-agonist compounds” (Eli Lilly and Company, priority 2019, dated 2026).
*1 amine or outer side, *2 acyl side, *3 side chain or, on linkers, in order; H or OH if unused. Where a SMILES comes first, the peptide text is derived from it. Side-chain parts run from the residue outwards. [ ]: non-standard residue; d: D form. The star is where a group is joined. C20 diacid = O=C(O)CCCCCCCCCCCCCCCCCCC(=O)*; C18 diacid = O=C(O)CCCCCCCCCCCCCCCCC(=O)*; γGlu = O=C(O)[C@H](CCC(=O)[*:2])N[*:1]; 4Pal = N[C@@H](Cc1ccncc1)C(=O)O; αMeL = CC(C)C[C@](C)(N)C(=O)O; Orn = NCCC[C@H](N)C(=O)O; AEEA = NCCOCCOCC(=O)O; Aib = CC(C)(N)C(=O)O

Legend:
human GIPR = target: T1, human GIPR (Homo sapiens, UniProt P48546); assay: [125I]-GIP binding, SPA with WGA beads, 0.1% bacitracin; details: geometric mean, read-out: hGIPR Ki
T1 construct: expressed in transfected cells; crude membranes
T1 sequence (P48546 22-466): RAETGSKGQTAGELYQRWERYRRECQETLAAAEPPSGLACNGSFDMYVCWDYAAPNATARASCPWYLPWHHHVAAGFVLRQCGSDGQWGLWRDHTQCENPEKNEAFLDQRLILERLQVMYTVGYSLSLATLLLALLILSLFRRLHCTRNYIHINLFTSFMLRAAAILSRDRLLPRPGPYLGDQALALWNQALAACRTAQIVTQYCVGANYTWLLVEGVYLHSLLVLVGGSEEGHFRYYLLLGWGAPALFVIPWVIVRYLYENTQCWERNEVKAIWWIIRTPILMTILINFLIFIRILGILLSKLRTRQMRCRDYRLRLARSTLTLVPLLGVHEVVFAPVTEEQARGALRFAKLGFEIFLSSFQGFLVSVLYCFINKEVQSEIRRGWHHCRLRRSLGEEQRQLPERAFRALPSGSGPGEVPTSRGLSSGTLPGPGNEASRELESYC
Procedure, shortened: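 Ki values are geometric means (SEM, n independent days), derived from four-parameter nonlinear regression of IC50. Membranes came from hGIPR-expressing CHO cells.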

human GLP-1R = target: T2, human GLP-1R (Homo sapiens, UniProt P43220); assay: [125I]-GLP-1 binding, SPA with WGA beads, 0.1% bacitracin; details: geometric mean, read-out: hGLP1R Ki
T2 construct: expressed in transfected cells; crude membranes
Procedure, shortened: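 Binding buffer was 25 mM HEPES pH 7.4 with 2.5 mM CaCl2, 1 mM MgCl2, 0.1% (w/v) bacitracin, 0.003% Tween-20 and EDTA-free protease inhibitors. Four-parameter regression gave IC50, converted to Ki (geometric mean, SEM, n independent days).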

T2 sequence (P43220 24-463): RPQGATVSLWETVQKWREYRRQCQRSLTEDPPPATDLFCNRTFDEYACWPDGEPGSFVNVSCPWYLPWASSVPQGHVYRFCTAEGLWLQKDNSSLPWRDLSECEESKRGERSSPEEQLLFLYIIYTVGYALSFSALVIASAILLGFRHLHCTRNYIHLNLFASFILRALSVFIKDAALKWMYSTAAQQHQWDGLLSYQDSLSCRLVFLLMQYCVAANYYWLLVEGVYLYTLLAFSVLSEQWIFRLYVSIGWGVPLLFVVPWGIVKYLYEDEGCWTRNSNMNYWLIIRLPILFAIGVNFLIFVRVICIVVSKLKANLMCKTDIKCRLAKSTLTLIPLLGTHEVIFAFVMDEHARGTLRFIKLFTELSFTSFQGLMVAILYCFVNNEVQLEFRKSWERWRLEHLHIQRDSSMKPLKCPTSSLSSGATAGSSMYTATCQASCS

SMILES	Ki (human GIPR) [nM]	Ki (human GLP-1R) [nM]
CC[C@H](C)[C@H](NC(=O)[C@H](Cc1ccccc1)NC(=O)[C@@H](NC(=O)CNC(=O)[C@H](CCC(=O)O)NC(=O)C(C)(C)NC(=O)[C@@H](N)Cc1ccc(O)cc1)[C@@H](C)O)C(=O)N[C@@H](CO)C(=O)N[C@@H](CC(=O)O)C(=O)N[C@@H](Cc1ccc(O)cc1)C(=O)N[C@@H](CO)C(=O)N[C@H](C(=O)N[C@@](C)(CC(C)C)C(=O)N[C@@H](CC(C)C)C(=O)N[C@@H](CC(=O)O)C(=O)N[C@@H](CCCN)C(=O)N[C@@H](CCCCNC(=O)COCCOCCNC(=O)COCCOCCNC(=O)CC[C@H](NC(=O)CCCCCCCCCCCCCCCCCCC(=O)O)C(=O)O)C(=O)N[C@@H](Cc1c[nH]cn1)C(=O)N[C@@H](CCC(N)=O)C(=O)NC(C)(C)C(=O)N[C@@H](CC(=O)O)C(=O)N[C@@H](Cc1ccccc1)C(=O)N[C@H](C(=O)N[C@@H](CCC(=O)O)C(=O)N[C@@H](Cc1ccncc1)C(=O)N[C@@H](CC(C)C)C(=O)N[C@@H](CC(C)C)C(=O)N[C@@H](CCC(=O)O)C(=O)NCC(=O)NCC(=O)N1CCC[C@H]1C(=O)N[C@@H](CO)C(=O)N[C@@H](CO)C(=O)NCC(=O)N[C@@H](C)C(=O)N1CCC[C@H]1C(=O)N1CCC[C@H]1C(=O)N1CCC[C@H]1C(=O)N[C@@H](CO)C(N)=O)C(C)C)[C@@H](C)CC [Example 82] (H-Y[Aib]EGTFISDYSI[αMeL]LD[Orn]K([AEEA-AEEA-γGlu-C20 diacid])HQ[Aib]DFVE[4Pal]LLEGGPSSGAPPPS-NH2)	0.0617	388
CC[C@H](C)[C@H](NC(=O)[C@H](Cc1ccccc1)NC(=O)[C@@H](NC(=O)CNC(=O)[C@H](CCC(=O)O)NC(=O)C(C)(C)NC(=O)[C@@H](N)Cc1ccc(O)cc1)[C@@H](C)O)C(=O)N[C@@H](CO)C(=O)N[C@@H](CC(=O)O)C(=O)N[C@@H](Cc1ccc(O)cc1)C(=O)N[C@@H](CO)C(=O)N[C@H](C(=O)N[C@@](C)(CC(C)C)C(=O)N[C@@H](CC(C)C)C(=O)N[C@@H](CC(=O)O)C(=O)N[C@@H](CCC(=O)O)C(=O)N[C@@H](CCCCNC(=O)COCCOCCNC(=O)COCCOCCNC(=O)CC[C@H](NC(=O)CCCCCCCCCCCCCCCCCCC(=O)O)C(=O)O)C(=O)N[C@@H](Cc1c[nH]cn1)C(=O)N[C@@H](CCC(N)=O)C(=O)NC(C)(C)C(=O)N[C@@H](CC(=O)O)C(=O)N[C@@H](Cc1ccccc1)C(=O)N[C@H](C(=O)N[C@@H](CCC(=O)O)C(=O)N[C@@H](Cc1ccncc1)C(=O)N[C@@H](CC(C)C)C(=O)N[C@@H](CC(C)C)C(=O)N[C@@H](C)C(=O)N[C@H](C(=O)NCC(=O)N1CCC[C@H]1C(=O)N[C@@H](CO)C(=O)N[C@@H](CO)C(=O)NCC(=O)N[C@@H](C)C(=O)N1CCC[C@H]1C(=O)N1CCC[C@H]1C(=O)N1CCC[C@H]1C(=O)N[C@@H](CO)C(N)=O)[C@@H](C)O)C(C)C)[C@@H](C)CC [Example 83] (H-Y[Aib]EGTFISDYSI[αMeL]LDEK([AEEA-AEEA-γGlu-C20 diacid])HQ[Aib]DFVE[4Pal]LLATGPSSGAPPPS-NH2)	0.116	452
CC[C@H](C)[C@H](NC(=O)[C@H](Cc1ccccc1)NC(=O)[C@@H](NC(=O)CNC(=O)[C@H](CCC(=O)O)NC(=O)C(C)(C)NC(=O)[C@@H](N)Cc1ccc(O)cc1)[C@@H](C)O)C(=O)N[C@@H](CO)C(=O)N[C@@H](CC(=O)O)C(=O)N[C@@H](Cc1ccc(O)cc1)C(=O)N[C@@H](CO)C(=O)N[C@H](C(=O)N[C@@](C)(CC(C)C)C(=O)N[C@@H](CC(C)C)C(=O)N[C@@H](CC(=O)O)C(=O)N[C@@H](CCC(=O)O)C(=O)N[C@@H](CCCCNC(=O)COCCOCCNC(=O)COCCOCCNC(=O)CC[C@H](NC(=O)CCCCCCCCCCCCCCCCCCC(=O)O)C(=O)O)C(=O)N[C@@H](Cc1c[nH]cn1)C(=O)N[C@@H](CCC(N)=O)C(=O)NC(C)(C)C(=O)N[C@@H](CC(=O)O)C(=O)N[C@@H](Cc1ccccc1)C(=O)N[C@H](C(=O)N[C@@H](CCC(=O)O)C(=O)N[C@@H](Cc1ccncc1)C(=O)N[C@@H](CC(C)C)C(=O)N[C@@H](CC(C)C)C(=O)N[C@@H](C)C(=O)N[C@@H](CCC(N)=O)C(=O)NCC(=O)N1CCC[C@H]1C(=O)N[C@@H](CO)C(=O)N[C@@H](CO)C(=O)NCC(=O)N[C@@H](C)C(=O)N1CCC[C@H]1C(=O)N1CCC[C@H]1C(=O)N1CCC[C@H]1C(=O)N[C@@H](CO)C(N)=O)C(C)C)[C@@H](C)CC [Example 84] (H-Y[Aib]EGTFISDYSI[αMeL]LDEK([AEEA-AEEA-γGlu-C20 diacid])HQ[Aib]DFVE[4Pal]LLAQGPSSGAPPPS-NH2)	0.0584	325
CC[C@H](C)[C@H](NC(=O)[C@H](Cc1ccccc1)NC(=O)[C@@H](NC(=O)CNC(=O)[C@H](CCC(=O)O)NC(=O)C(C)(C)NC(=O)[C@@H](N)Cc1ccc(O)cc1)[C@@H](C)O)C(=O)N[C@@H](CO)C(=O)N[C@@H](CC(=O)O)C(=O)N[C@@H](Cc1ccc(O)cc1)C(=O)N[C@@H](CO)C(=O)N[C@H](C(=O)N[C@@](C)(CC(C)C)C(=O)N[C@@H](CC(C)C)C(=O)N[C@@H](CC(=O)O)C(=O)N[C@@H](CCC(=O)O)C(=O)N[C@@H](CCCCNC(=O)COCCOCCNC(=O)COCCOCCNC(=O)CC[C@H](NC(=O)CCCCCCCCCCCCCCCCCCC(=O)O)C(=O)O)C(=O)N[C@@H](Cc1c[nH]cn1)C(=O)N[C@@H](CCC(N)=O)C(=O)NC(C)(C)C(=O)N[C@@H](CC(=O)O)C(=O)N[C@@H](Cc1ccccc1)C(=O)N[C@H](C(=O)N[C@@H](CCC(=O)O)C(=O)N[C@@H](Cc1ccncc1)C(=O)N[C@@H](CC(C)C)C(=O)N[C@@H](CC(C)C)C(=O)N[C@@H](C)C(=O)N[C@@H](C)C(=O)NCC(=O)N1CCC[C@H]1C(=O)N[C@@H](CO)C(=O)N[C@@H](CO)C(=O)NCC(=O)N[C@@H](C)C(=O)N1CCC[C@H]1C(=O)N1CCC[C@H]1C(=O)N1CCC[C@H]1C(=O)N[C@@H](CO)C(N)=O)C(C)C)[C@@H](C)CC [Example 85]	0.0529	220
CC[C@H](C)[C@H](NC(=O)[C@H](Cc1ccccc1)NC(=O)[C@@H](NC(=O)CNC(=O)[C@H](CCC(=O)O)NC(=O)C(C)(C)NC(=O)[C@@H](N)Cc1ccc(O)cc1)[C@@H](C)O)C(=O)N[C@@H](CO)C(=O)N[C@@H](CC(=O)O)C(=O)N[C@@H](Cc1ccc(O)cc1)C(=O)N[C@@H](CO)C(=O)N[C@H](C(=O)N[C@@](C)(CC(C)C)C(=O)N[C@@H](CC(C)C)C(=O)N[C@@H](CC(=O)O)C(=O)N[C@@H](CCC(=O)O)C(=O)N[C@@H](CCCCNC(=O)COCCOCCNC(=O)COCCOCCNC(=O)CC[C@H](NC(=O)CCCCCCCCCCCCCCCCCCC(=O)O)C(=O)O)C(=O)N[C@@H](Cc1c[nH]cn1)C(=O)N[C@@H](CCC(N)=O)C(=O)NC(C)(C)C(=O)N[C@@H](CC(=O)O)C(=O)N[C@@H](Cc1ccccc1)C(=O)N[C@H](C(=O)N[C@@H](CCC(=O)O)C(=O)N[C@@H](Cc1ccncc1)C(=O)N[C@@H](CC(C)C)C(=O)N[C@@H](CC(C)C)C(=O)N[C@@H](C)C(=O)NCC(=O)NCC(=O)N1CCC[C@H]1C(=O)N[C@@H](CO)C(=O)N[C@@H](CO)C(=O)NCC(=O)N[C@@H](C)C(=O)N1CCC[C@H]1C(=O)N1CCC[C@H]1C(=O)N1CCC[C@H]1C(=O)N[C@@H](CO)C(N)=O)C(C)C)[C@@H](C)CC [Example 86]	0.0533	108
CC[C@H](C)[C@H](NC(=O)[C@H](Cc1ccccc1)NC(=O)[C@@H](NC(=O)CNC(=O)[C@H](CCC(=O)O)NC(=O)C(C)(C)NC(=O)[C@@H](N)Cc1ccc(O)cc1)[C@@H](C)O)C(=O)N[C@@H](CO)C(=O)N[C@@H](CC(=O)O)C(=O)N[C@@H](Cc1ccc(O)cc1)C(=O)N[C@@H](CO)C(=O)N[C@H](C(=O)N[C@@](C)(CC(C)C)C(=O)N[C@@H](CC(C)C)C(=O)N[C@@H](CC(=O)O)C(=O)N[C@@H](CCCN)C(=O)N[C@@H](CCCCNC(=O)COCCOCCNC(=O)COCCOCCNC(=O)CC[C@H](NC(=O)CCCCCCCCCCCCCCCCC(=O)O)C(=O)O)C(=O)N[C@@H](Cc1c[nH]cn1)C(=O)N[C@@H](CCC(N)=O)C(=O)NC(C)(C)C(=O)N[C@@H](CC(=O)O)C(=O)N[C@@H](Cc1ccccc1)C(=O)N[C@H](C(=O)N[C@@H](CCC(=O)O)C(=O)N[C@@H](Cc1ccncc1)C(=O)N[C@@H](CC(C)C)C(=O)N[C@@H](CC(C)C)C(=O)N[C@@H](CCC(=O)O)C(=O)N[C@@H](C)C(=O)NCC(=O)N1CCC[C@H]1C(=O)N[C@@H](CO)C(=O)N[C@@H](CO)C(=O)NCC(=O)N[C@@H](C)C(=O)N1CCC[C@H]1C(=O)N1CCC[C@H]1C(=O)N1CCC[C@H]1C(=O)N[C@@H](CO)C(N)=O)C(C)C)[C@@H](C)CC [Example 87] (H-Y[Aib]EGTFISDYSI[αMeL]LD[Orn]K([AEEA-AEEA-γGlu-C18 diacid])HQ[Aib]DFVE[4Pal]LLEAGPSSGAPPPS-NH2)	0.0538	849
